For this experiment, the system named is HCV proteins in Rep5.1 cells (replicon cell line). Nature of the experiment: Inhibitory activity of HCV: cell-based ELISA in replicon cell line Rep5.1 (decrease of HCV proteins). The arrangement: species or system hepatitis C virus. To be noted: Rep5.1 cells, 72 hours with drug. The procedure, abridged:
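HCV protein loss was quantified by ELISA on methanol/acetone-fixed cells 72 h after drug addition, probing with selected HCV-positive human plasma, and IC50 was defined as 50% reduction relative to untreated wells. The cells were Rep5.1 replicon cells cultured in DMEM-10 with 500 μg/ml G418, plated at 5000 per well and dosed with serial dilutions after 4 h attachment.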

The mark [1] stands for this setting: Hepatitis C virus, 72 h, concentration at which 50% of HCV proteins was decreased, Table 2, read-out: IC50.
Where [2] appears, read: Hepatitis C virus, 72 h, decrease of HCV proteins measured by HCV antibody, Table 1, read-out: Level (IC50 values classified).
The mark [3] stands for this setting: concentration at which 50% of HCV proteins was decreased, Table 2, read-out: IC50.

Like-named read-outs stand apart in the source and are kept apart here.

The term IC50 denotes the concentration that gives 50% inhibition. On to `COc1ccc(COC(=O)C2=C(C)NC(=S)NC2)c(F)c1` [Compound 177, 6-methyl-2-thioxo-1,2,3,4-tetrahydro-pyrimidine-5-carboxylic acid 2-fluoro-4-methoxy-benzyl ester], for which the IC50 reads like this: under setting [1], 2500 nM; under setting [2], 1000 to 10000 nM.

As to `COc1cc(COC(=O)C2=C(C)NC(=S)NC2)cc(Br)c1OC` [Compound 178, 6-methyl-2-thioxo-1,2,3,4-tetrahydro-pyrimidine-5-carboxylic acid 3-bromo-4,5-dimethoxy-benzyl ester], the IC50 was 1500 nM under setting [1] and 1000 to 10000 nM under setting [2].

Take `COc1c(C)cc(COC(=O)C2=C(C)NC(=S)NC2)cc1C` [Compound 180, 6-methyl-2-thioxo-1,2,3,4-tetrahydro-pyrimidine-5-carboxylic acid 4-methoxy-3,5-dimethyl-benzyl ester]: the IC50 by setting is: under setting [1], 800 nM; under setting [2], under 1000 nM.

As for `CC1=C(C(=O)OCc2c(C)nn(-c3ccccc3)c2C)CNC(=S)N1` [Compound 181, 6-methyl-2-thioxo-1,2,3,4-tetrahydro-pyrimidine-5-carboxylic acid 3,5-dimethyl-1-phenyl-1H-pyrazol-4-ylmethyl ester], the IC50 runs as follows: under setting [1], over 100000 nM; under setting [2], over 20000 nM.

Consider `CC1=C(C(=O)OCc2ccccc2[N+](=O)[O-])CNC(=S)N1` [Compound 183, 6-methyl-2-thioxo-1,2,3,4-tetrahydro-pyrimidine-5-carboxylic acid 2-nitro-benzyl ester], for which the IC50 is 2500 nM under setting [1] and 1000 to 10000 nM under setting [2].

Take `CC1=C(C(=O)OCc2c(C)cccc2C)CNC(=S)N1` [Compound 184, 6-methyl-2-thioxo-1,2,3,4-tetrahydro-pyrimidine-5-carboxylic acid 2,6-dimethyl-benzyl ester]: the IC50 was 19000 nM under setting [1] and 10000 to 20000 nM under setting [2].

With `COc1ccc(Br)cc1COC(=O)C1=C(C)NC(=S)NC1` [Compound 185, 6-methyl-2-thioxo-1,2,3,4-tetrahydro-pyrimidine-5-carboxylic acid 5-bromo-2-methoxy-benzyl ester], the IC50 by setting is: under setting [1], 400 nM; under setting [2], under 1000 nM.

`CC1=C(C(=O)OCC#Cc2ccccc2)CNC(=S)N1` [Compound 192, 6-methyl-2-thioxo-1,2,3,4-tetrahydro-pyrimidine-5-carboxylic acid 3-phenyl-prop-2-inyl ester]: the IC50 under setting [3] was under 400 nM.

Take `CC1=C(C(=O)OCC(Br)=CBr)CNC(=S)N1` [Compound 193, 6-methyl-2-thioxo-1,2,3,4-tetrahydro-pyrimidine-5-carboxylic acid 2,3-dibromo-allyl ester]: the IC50 is 1000 nM under setting [1] and under 1000 nM under setting [2].

For `CC1=C(C(=O)OCC2COc3ccccc3O2)CNC(=S)N1` (centres unmarked) [Compound 195, 6-methyl-2-thioxo-1,2,3,4-tetrahydro-pyrimidine-5-carboxylic acid 2,3-dihydro-benzo[1,4]dioxin-2-ylmethyl ester], the IC50 under setting [1] worked out at 2000 nM and the IC50 under setting [2] was in the range of 1000 to 10000 nM.

As to `COC(=O)C1=C(C(=O)OCc2ccccc2)CNC(=S)N1` [Compound 196, 2-thioxo-1,2,3,6-tetrahydro-pyrimidine-4,5-dicarboxylic acid 5-benzyl ester 4-methyl ester], the 50% inhibitory concentration (IC50) reads like this: under setting [1], 43000 nM; under setting [2], over 20000 nM.

For `CCOC(=O)CCCCCOC(=O)C1=C(C)NC(=S)NC1` [Compound 197, 6-methyl-2-thioxo-1,2,3,4-tetrahydro-pyrimidine-5-carboxylic acid 5-ethoxycarbonyl-pentyl ester], the IC50 is over 100000 nM under setting [1] and over 20000 nM under setting [2].

As for `COC(=O)CCCCCCCCCOC(=O)C1=C(C)NC(=S)NC1` [Compound 198, 6-methyl-2-thioxo-1,2,3,4-tetrahydro-pyrimidine-5-carboxylic acid 9-methoxycarbonyl-nonyl ester], the IC50 by setting is: under setting [1], 10000 nM; under setting [2], 1000 to 10000 nM.

With `CC1=C(C(=O)OCc2ccc(SC(F)(F)F)cc2)CNC(=S)N1` [Compound 199, 6-methyl-2-thioxo-1,2,3,4-tetrahydro-pyrimidine-5-carboxylic acid 4-trifluoromethylsulfanyl-benzyl ester], the IC50 is, setting by setting: under setting [1], under 400 nM; under setting [2], under 1000 nM.

Take `CCCCCCC#CCCOC(=O)C1=C(C)NC(=S)NC1` [Compound 200, 6-methyl-2-thioxo-1,2,3,4-tetrahydro-pyrimidine-5-carboxylic acid dec-3-inyl ester]: the IC50 under setting [3] was under 400 nM.

On to `CC1=C(C(=O)OCCS(=O)(=O)c2ccc(C)cc2)CNC(=S)N1` [Compound 201, 6-methyl-2-thioxo-1,2,3,4-tetrahydro-pyrimidine-5-carboxylic acid 2-(toluene-4-sulfonyl)-ethyl ester], for which the IC50 is, setting by setting: under setting [1], 13000 nM; under setting [2], 10000 to 20000 nM.

In the case of `CC1=C(C(=O)OCc2sccc2C)CNC(=S)N1` [Compound 202, 6-methyl-2-thioxo-1,2,3,4-tetrahydro-pyrimidine-5-carboxylic acid 3-methyl-thiophen-2-ylmethyl ester], the IC50 runs as follows: under setting [1], 9000 nM; under setting [2], 1000 to 10000 nM.

On to `CC1=C(C(=O)OCc2ccc(Br)s2)CNC(=S)N1` [Compound 203, 6-methyl-2-thioxo-1,2,3,4-tetrahydro-pyrimidine-5-carboxylic acid 5-bromo-thiophen-2-ylmethyl ester], for which the IC50 runs as follows: under setting [1], under 400 nM; under setting [2], under 1000 nM.

For `CC1=C(C(=O)OCc2cc(Br)cs2)CNC(=S)N1` [Compound 204, 6-methyl-2-thioxo-1,2,3,4-tetrahydro-pyrimidine-5-carboxylic acid 4-bromo-thiophen-2-ylmethyl ester], the IC50 is, setting by setting: under setting [1], under 400 nM; under setting [2], under 1000 nM.

With `CCc1ccc(COC(=O)C2=C(C)NC(=S)NC2)s1` [Compound 205, 6-methyl-2-thioxo-1,2,3,4-tetrahydro-pyrimidine-5-carboxylic acid 5-ethyl-thiophen-2-ylmethyl ester], the IC50 is, setting by setting: under setting [1], 1800 nM; under setting [2], 1000 to 10000 nM.

Consider `CC1=C(C(=O)OCCc2cccs2)CNC(=S)N1` [Compound 206, 6-methyl-2-thioxo-1,2,3,4-tetrahydro-pyrimidine-5-carboxylic acid 2-thiophen-2-yl-ethyl ester], for which the IC50 by setting is: under setting [1], 600 nM; under setting [2], under 1000 nM.

As to `CC1=C(C(=O)OCc2scc(C)c2Cl)CNC(=S)N1` [Compound 207, 6-methyl-2-thioxo-1,2,3,4-tetrahydro-pyrimidine-5-carboxylic acid 3-chloro-4-methyl-thiophen-2-ylmethyl ester], the IC50 was 300 nM under setting [1] and under 1000 nM under setting [2].

Take `CC1=C(C(=O)OCCc2ccsc2)CNC(=S)N1` [Compound 208, 6-methyl-2-thioxo-1,2,3,4-tetrahydro-pyrimidine-5-carboxylic acid 2-thiophen-3-yl-ethyl ester]: the IC50 is under 400 nM under setting [1] and under 1000 nM under setting [2].

For `COCCN(C)c1ccc(CCOC(=O)C2=C(C)NC(=S)NC2)cc1` [Compound 209, 6-methyl-2-thioxo-1,2,3,4-tetrahydro-pyrimidine-5-carboxylic acid 2-{4-[(2-methoxy-ethyl)-methyl-amino]-phenyl}-ethyl ester], the half-maximal inhibitory concentration (IC50) under setting [1] is under 400 nM and the IC50 under setting [2] was under 1000 nM.

For the molecule `CC1=C(C(=O)OCc2cnc(-c3cccs3)s2)CNC(=S)N1` [Compound 210, 6-methyl-2-thioxo-1,2,3,4-tetrahydro-pyrimidine-5-carboxylic acid 2-thiophen-2-yl-thiazol-5-ylmethyl ester], the IC50 reads like this: under setting [1], 3000 nM; under setting [2], 1000 to 10000 nM.

Consider `CC1=C(C(=O)OCc2ccccc2)C(CF)NC(=S)N1` (centres unmarked) [Compound 211, 4-fluoromethyl-6-methyl-2-thioxo-1,2,3,4-tetrahydro-pyrimidine-5-carboxylic acid benzyl ester], for which the IC50 was 16000 nM under setting [1] and 10000 to 20000 nM under setting [2].

Take `CC1=C(C(=O)OCc2cc3c(C)snc3s2)CNC(=S)N1` [Compound 213, 6-methyl-2-thioxo-1,2,3,4-tetrahydro-pyrimidine-5-carboxylic acid 3-methyl-thieno[2,3-c]isothiazol-5-ylmethyl ester]: the IC50 runs as follows: under setting [1], 4000 nM; under setting [2], 1000 to 10000 nM.

As for `CC1=C(C(=O)OCC#CCOCc2ccccc2)CNC(=S)N1` [Compound 214, 6-methyl-2-thioxo-1,2,3,4-tetrahydro-pyrimidine-5-carboxylic acid 4-benzyloxy-but-2-inyl ester], the IC50 under setting [3] is under 400 nM.

Turning to `COCC#CCOC(=O)C1=C(C)NC(=S)NC1` [Compound 215, 6-methyl-2-thioxo-1,2,3,4-tetrahydro-pyrimidine-5-carboxylic acid 4-methoxy-but-2-inyl ester], the IC50 under setting [3] turned out to be 11000 nM.

Regarding `CC1=C(C(=O)OCc2sc3sc(C)nc3c2C)CNC(=S)N1` [Compound 216, 6-methyl-2-thioxo-1,2,3,4-tetrahydro-pyrimidine-5-carboxylic acid 2,6-dimethyl-thieno[3,2-d]thiazol-5-ylmethyl ester], the half-maximal inhibitory concentration (IC50) was 5000 nM under setting [1] and 1000 to 10000 nM under setting [2].

Consider `CSc1ccc(COC(=O)C2=C(C)NC(=S)NC2)s1` [Compound 217, 6-methyl-2-thioxo-1,2,3,4-tetrahydro-pyrimidine-5-carboxylic acid 5-methylsulfanyl-thiophen-2-ylmethyl ester], for which the IC50 under setting [1] worked out at 7000 nM and the IC50 under setting [2] was 1000 to 10000 nM.

Turning to `CC1=C(C(=O)OCc2ccc(-c3cccs3)s2)CNC(=S)N1` [Compound 218, 6-methyl-2-thioxo-1,2,3,4-tetrahydro-pyrimidine-5-carboxylic acid[2,2′]bithiophenyl-5-ylmethyl ester], the half-inhibitory concentration (IC50) under setting [3] was under 400 nM.

For the origin of these results see patent US20060116390A1, “Hepatitis c virus inhibitors” (priority 2003, published 2006).
